For data set [1], the system named is male dd-strain rats. Briefly: Acute toxicity test (minimum lethal dose). The following applies: mortality for 7 days. In kind it is in vivo. The protocol:
Groups of male dd-strain rats (each group consisting of five rats) weighing 20±1 g were used. The compounds of the present invention were administered orally (po: 0.3 mg/g) or intraperitoneally (ip: 0.1 mg/g). The MLD (minimum lethal dose) was calculated from the mortality for 7 days after the administration to obtain the results given in Table 1.

Data set [2] is described as follows: Antiasthmatic activity. In kind it is in vivo. The following applies: po; for minimal effective dose: read-out: Antiasthmatic activity: MED.
Data set [3] deals with isolated ileum of guinea-pig. Briefly: Test for anticholinergic effects on the isolated ileum of guinea-pig (acetylcholine contraction, in vitro). The conditions noted are these: depressing ratio of 80% or more of acetylcholine contraction, compound 3 minutes before; for minimal effective concentration: Cavia porcellus, 0.05 h, read-out: Anticholinergic activity: MED (minimum effective dose). Details: species or system guinea-pig (male Hartly-strain). As for the experimental part: (§1) Male Hartly-strain guinea-pigs weighing about 250 g are killed and the abdomen is opened. The part (2-3 cm in length) of the ileum 10 cm away from the caecum to the pylorus is cut off as a preparation. The preparation is suspended with serre-fine in a Magnus bath containing 10 ml of Tyrode's solution at 32±1° C. under an air bubble. The contraction of the ileum is recorded on Kymograph through hebel when 0.1 ml of acetylcholine at a concentration of 10^-3 g/ml is added to the Tyrode's solution.
(§2) On the other hand, 3 minutes after administration of the test compounds, the same procedure as mentioned above is carried out to record the contraction.

Data set [4] has as its system isolated ileum of guinea-pig. Description: Test for antihistaminergic effects on the isolated ileum of guinea-pig (histamine contraction, in vitro). The following applies: depressing ratio of 80% or more of histamine contraction; for minimal effective concentration: Cavia porcellus, 0.05 h, read-out: Antihistaminergic activity: MED. More on the design: species or system guinea-pig (male Hartly-strain). As for the experimental part: as §1, §2
In this test, 0.1 ml of histamine at a concentration of 5×10^-3 g/l is used.

The subject of data set [5] is blood platelets (platelet-rich plasma). Briefly: Test for the inhibition of platelet aggregation (collagen-induced, platelet-rich plasma). In kind it is cell-based, male white rabbits. The conditions noted are these: depressing ratio of 50% of collagen-induced aggregation, compound 3 minutes before; for minimal effective concentration: Oryctolagus cuniculus, Platelet, 0.05 h, read-out: Antiplatelet aggregation activity: MED. As for the experimental part: In this test, 9 vols. of blood are sampled from the caroted artery of male white rabbits weighing 2 to 2.5 kg and placed in a silicon-coated flask containing 1 vol. of 3.8% sodium citrate. The thus obtained blood is centrifuged at 1,000 rpm for 15 minutes to obtain platelet-rich plasma. The aggregation of the blood platelets is observed using an aggregometer, when collagen is added to the platelet-rich plasma to the extent of the final concentration that 50% of platelet aggregation is caused in the presence of 100 γ/ml of aspirin. On the other hand, 3 minutes after administration of the test compounds to the platelet-rich plasma, the same procedure as mentioned above is carried out to observe the aggregation of blood platelet. The test compounds showing a depressing ratio of 50%, compared with the inhibition of aggregation by collagen alone, are concluded to have antiplatelet aggregation activity.

Experimental findings from US4396550A, “Dibenz [b,e] oxepin derivatives” (Kyowa Hakko Kogyo Co., Ltd., priority 1980, dated 1983) are described below.

Regarding `CCC(C)(C)c1ccc2c(c1)C(NC1CN3CCC1CC3)c1ccccc1CO2` (stereo not drawn) [Compound 53, 2-(1,1-dimethyl)propyl-11-(3-quinuclidinyl)amino-6,11-dihydrodibenz[b,e]oxepin], the “Acute toxicity: MLD (minimum lethal dose)” value (“Acute toxicity: MLD” for short) in data set [1] (ip) was 50 mg/kg; in data set [1] (po), above 300 mg/kg. Also, the minimal effective dose in data set [2] was determined as 50 mg/kg. Besides, the values for the minimal effective concentration in data set [3] and in data set [4] were 10 µg/mL and 1 µg/mL, respectively.

For the compound “4-methyl-11-(3-quinuclidinyl)amino-6,11-dihydrodibenz[b,e]oxepin [Compound 56]”, the “Acute toxicity: MLD” value in data set [1] (ip) is on record as 100 mg/kg; in data set [1] (po) it was 200 mg/kg. In addition, in data set [2], the “Antiasthmatic activity: MED” value is recorded as 100 mg/kg. The “Anticholinergic activity: MED (minimum effective dose)” value in data set [3] is 1 µg/mL. Also, the “Antiplatelet aggregation activity: MED” value in data set [5] is 20 µg/mL. In data set [4], the “Antihistaminergic activity: MED” value stood at 1 µg/mL.

With `CN1CCN(C2c3ccccc3COc3ccc(Cl)cc32)CC1` (stereo not drawn) [Compound 70, 2-chloro-11-(4-methyl-1-piperazinyl)-6,11-dihydrodibenz[b,e]oxepin], the figures for the “Acute toxicity: MLD” value in data set [1] (ip) and in data set [1] (po) were 100 mg/kg and 200 mg/kg, respectively. Besides, the minimal effective dose in data set [2] was determined as 10 mg/kg. Further, the minimal effective concentration in data set [3] is 1 µg/mL; in data set [5] it was 50 µg/mL; in data set [4], 0.3 µg/mL.

Take `CN(C)CCNC1c2ccccc2COc2ccc(Cl)cc21` (stereo not drawn) [Compound 19, 2-chloro-11-{2-(dimethylamino)ethyl}amino-6,11-dihydrodibenz[b,e]oxepin]: the “Acute toxicity: MLD” value in data set [1] (ip) was above 100 mg/kg; in data set [1] (po), above 300 mg/kg. Moreover, the minimal effective dose in data set [2] was 25 mg/kg. Besides, the minimal effective concentration in data set [3] was 3 µg/mL; in data set [5] it was 50 µg/mL; in data set [4] it was 1 µg/mL.

Regarding `OCCN1CCN(C2c3ccccc3COc3ccc(F)cc32)CC1` (stereo not drawn) [Compound 39, 2-fluoro-11-{4-(2-hydroxyethyl)-1-piperazinyl}-6,11-dihydrodibenz[b,e]oxepin], the entries for the “Acute toxicity: MLD” value in data set [1] (ip) and in data set [1] (po) were 100 mg/kg and above 300 mg/kg, respectively. Further, the minimal effective dose in data set [2] was determined as 100 mg/kg. For the same compound, the minimal effective concentration in data set [3] worked out at 1 µg/mL; in data set [5], 50 µg/mL; in data set [4], 10 µg/mL.

With `Cc1ccc2c(c1)C(N1CCN(C)CC1)c1ccccc1CO2` (stereo not drawn) [Compound 67, 2-methyl-11-(4-methyl-1-piperazinyl)-6,11-dihydrodibenz[b,e]oxepin], the results for the “Acute toxicity: MLD” value in data set [1] (ip) and in data set [1] (po) were above 100 mg/kg and above 300 mg/kg, respectively. Moreover, the minimal effective dose in data set [2] was 25 mg/kg. Also, the results for the minimal effective concentration in data set [3], in data set [5] and in data set [4] were 10 µg/mL, 50 µg/mL and 0.3 µg/mL, respectively.

Turning to `CCN1CCCC1CNC1c2ccccc2COc2ccc(C)cc21` (stereo not drawn) [Compound 28, 2-methyl-11-{(1-ethyl-2-pyrrolidinyl)methyl}-amino-6,11-dihydrodibenz[b,e]oxepin], the results for the “Acute toxicity: MLD” value in data set [1] (ip) and in data set [1] (po) were 100 mg/kg and 300 mg/kg, respectively. Besides, the minimal effective dose in data set [2] stood at 25 mg/kg. In addition, the results for the minimal effective concentration in data set [3], in data set [5] and in data set [4] were 1 µg/mL, 50 µg/mL and 1 µg/mL, respectively.

As for `CCc1ccc2c(c1)C(N1CCN(C)CC1)c1ccccc1CO2` (stereo not drawn) [Compound 66, 2-ethyl-11-(4-methyl-1-piperazinyl)-6,11-dihydrodibenz[b,e]oxepin], the figures for the “Acute toxicity: MLD” value in data set [1] (ip) and in data set [1] (po) were above 100 mg/kg and above 300 mg/kg, respectively. Moreover, in data set [2], the minimal effective dose stood at 10 mg/kg. In addition, the values for the minimal effective concentration in data set [3], in data set [5] and in data set [4] were 10 µg/mL, 50 µg/mL and 1 µg/mL, respectively.

As to `CCc1ccc2c(c1)C(NCCN(C)C)c1ccccc1CO2` (stereo not drawn) [Compound 17, 2-ethyl-11-{2-(dimethylamino)ethyl}amino-6,11-dihydrodibenz[b,e]oxepin], the “Acute toxicity: MLD” value is listed as above 100 mg/kg in data set [1] (ip) and 300 mg/kg in data set [1] (po). In addition, in data set [2], the minimal effective dose stood at 10 mg/kg. Also, the minimal effective concentration in data set [3] was 0.01 µg/mL; in data set [5] it was 50 µg/mL; in data set [4], 0.3 µg/mL.

As for `CCc1ccc2c(c1)C(N1CCN(CCO)CC1)c1ccccc1CO2` (stereo not drawn) [Compound 38, 2-ethyl-11-{4-(2-hydroxyethyl)-1-piperazinyl}-6,11-dihydrodibenz[b,e]oxepin], the entries for the “Acute toxicity: MLD” value in data set [1] (ip) and in data set [1] (po) were above 100 mg/kg and above 300 mg/kg, respectively. Also, the minimal effective dose in data set [2] was 100 mg/kg. The minimal effective concentration in data set [3] came out at 1 µg/mL; in data set [5], 100 µg/mL; in data set [4], 1 µg/mL.

As to `OCCN1CCN(C2c3ccccc3COc3ccc(Cl)cc32)CC1` (stereo not drawn) [Compound 40, 2-chloro-11-{4-(2-hydroxyethyl)-1-piperazinyl}-6,11-dihydrodibenz[b,e]oxepin], the “Acute toxicity: MLD” value is given as above 100 mg/kg in data set [1] (ip) and above 300 mg/kg in data set [1] (po). In addition, the minimal effective dose in data set [2] came out at 50 mg/kg. Moreover, the minimal effective concentration in data set [5] amounted to 100 µg/mL; in data set [4], 3 µg/mL.

As to `COc1ccc2c(c1)C(NC1CN3CCC1CC3)c1ccccc1CO2` (stereo not drawn) [Compound 24, 2-methoxy-11-(3-quinuclidinyl)amino-6,11-dihydrodibenz[b,e]oxepin], the results for the “Acute toxicity: MLD” value in data set [1] (ip) and in data set [1] (po) were 100 mg/kg and 200 mg/kg, respectively. Besides, the minimal effective dose in data set [2] was determined as 50 mg/kg. Moreover, the minimal effective concentration in data set [3] was 0.3 µg/mL; in data set [5] it was 100 µg/mL; in data set [4], 0.1 µg/mL.

On to `Fc1ccc2c(c1)C(NC1CN3CCC1CC3)c1ccccc1CO2` (stereo not drawn) [Compound 22, 2-fluoro-11-(3-quinuclidinyl)amino-6,11-dihydrodibenz[b,e]oxepin], for which the “Acute toxicity: MLD” value in data set [1] (ip) is on record as 100 mg/kg; in data set [1] (po) it was 300 mg/kg. In addition, the minimal effective dose in data set [2] was 50 mg/kg. For the same compound, the values for the minimal effective concentration in data set [3], in data set [5] and in data set [4] were 0.3 µg/mL, 100 µg/mL and 0.3 µg/mL, respectively.

In the case of `CCc1ccc2c(c1)C(NCCN1CCCCC1)c1ccccc1CO2` (stereo not drawn) [Compound 35, 2-ethyl-11-(2-piperidinoethyl)amino-6,11-dihydrodibenz[b,e]oxepin], the figures for the “Acute toxicity: MLD” value in data set [1] (ip) and in data set [1] (po) were above 100 mg/kg and 300 mg/kg, respectively. Further, the minimal effective dose in data set [2] came to 25 mg/kg. For the same compound, the values for the minimal effective concentration in data set [3], in data set [5] and in data set [4] were 3 µg/mL, 20 µg/mL and 1 µg/mL, respectively.

Turning to `CCN(CC)CCNC1c2ccccc2COc2ccc(F)cc21` (stereo not drawn) [Compound 9, 2-fluoro-11-{2-(diethylamino)ethyl}amino-6,11-dihydrodibenz[b,e]oxepin], the “Acute toxicity: MLD” value was 100 mg/kg in data set [1] (ip) and above 300 mg/kg in data set [1] (po). Besides, in data set [2], the minimal effective dose was found to be 50 mg/kg. For the same compound, the minimal effective concentration stood at 3 µg/mL in data set [3], 50 µg/mL in data set [5] and 1 µg/mL in data set [4].

`Cc1ccc2c(c1)C(NCCN1CCOCC1)c1ccccc1CO2` (stereo not drawn) [Compound 59, 2-methyl-11-(2-morpholinoethyl)amino-6,11-dihydrodibenz[b,e]oxepin]: the “Acute toxicity: MLD” value in data set [1] (ip) is given as above 100 mg/kg; in data set [1] (po), 200 mg/kg. The minimal effective dose in data set [2] is 100 mg/kg. Also, the minimal effective concentration in data set [5] was 100 µg/mL; in data set [4], 10 µg/mL.
